The target in the assay is DNA-PK (Homo sapiens, UniProt P78527). Briefly: DNA-PK inhibition assay (radiometric, 33P-ATP). Type of assay: biochemical. To be noted: 100 μM ATP, competitive tight-binding fit. How it is done: Compounds were screened for their ability to inhibit DNA-PK kinase using a standard radiometric assay. Briefly, in this kinase assay the transfer of the terminal ^33P-phosphate in ^33P-ATP to a peptide substrate is interrogated. The assay was carried out in 384-well plates to a final volume of 50 μL per well containing approximately 6 nM DNA-PK, 50 mM HEPES (pH 7.5), 10 mM MgCl2, 25 mM NaCl, 0.01% BSA, 1 mM DTT, 10 μg/mL sheared double-stranded DNA (obtained from Sigma), 0.8 mg/mL DNA-PK peptide ([…] obtained from American Peptide), and 100 μM ATP. Accordingly, compounds of the invention were dissolved in DMSO to make 10 mM initial stock solutions. Serial dilutions in DMSO were then made to obtain the final solutions for the assay. A 0.75 μL aliquot of DMSO or inhibitor in DMSO was added to each well, followed by the addition of ATP substrate solution containing ^33P-ATP (obtained from Perkin Elmer). The reaction was started by the addition of DNA-PK, peptide and ds-DNA. After 45 min, the reaction was quenched with 25 μL of 5% phosphoric acid. The reaction mixture was transferred to MultiScreen HTS 384-well PH plates (obtained from Millipore), allowed to bind for one hour, and washed three times with 1% phosphoric acid. Following the addition of 50 μL of Ultima Gold™ high efficiency scintillant (obtained from Perkin Elmer), the samples were counted in a Packard TopCount NXT Microplate Scintillation and Luminescence Counter (Packard BioScience). The Ki values were calculated using Microsoft Excel Solver macros to fit the data to the kinetic model for competitive tight-binding inhibition.

pKi: −log10 of the molar value. Bounds are passed on as bounds.

The molecule `COc1ccccc1[C@H](C)CNc1cc(-c2ccc(NC(C)CO)nc2)ncn1` (single isomer, unassigned) [Compound 126] had a negative-log Ki (pKi) greater than 7.52. For `COc1ccccc1[C@H](C)CNc1cc(-c2cnc3c(cnn3CC(O)CO)c2)ncn1` (single isomer, unassigned) [Compound 149] the value was greater than 7.52.

With `COc1ccccc1[C@H](C)CNc1cc(-c2ccnc(NCC(O)CO)c2)ncn1` (single isomer, unassigned) [Compound 208], the pKi was greater than 7.52.

Regarding `CNC(=O)c1ccc([C@H](C)CNc2cc(-c3ccc(NC(C)CO)nc3)ncn2)c(OC)c1` (single isomer, unassigned) [Compound 357], the pKi was greater than 7.52. Turning to `CNC(=O)c1ccc([C@H](C)CNc2cc(-c3ccc(NC4CCOC4)nc3)ncn2)c(OC)c1` (single isomer, unassigned) [Compound 391], the pKi was greater than 7.52.

Consider `C[C@H](CNc1cc(-c2cnc3c(cnn3CC(O)CO)c2)ncn1)c1ccnc2c1OCC2` (single isomer, unassigned) [Compound 436], for which the negative-log Ki (pKi) was greater than 7.52. For `CC(O)Cn1ncc2cc(-c3cc(NC[C@@H](C)c4ccnc5c4OCCO5)ncn3)cnc21` (single isomer, unassigned) [Compound 503] the value was greater than 7.52; for `Cc1ccc(-c2cc(NC[C@@H](C)c3cccc4c3OC(CO)C4)ncn2)cn1` (single isomer, unassigned) [Compound 538], greater than 7.52; for `Cc1ccc(-c2cc(NC[C@@H](C)c3ccnc4c3OCC4C)ncn2)cn1` (single isomer, unassigned) [Compound 576], greater than 7.52. The value for `CCN1CCCC1CNc1ccc(-c2cc(NC[C@@H](C)c3cccc4c(C(=O)NC)ccnc34)ncn2)cn1` (single isomer, unassigned) [Compound 704] was greater than 7.52. The molecule `CNC(=O)c1ccnc2c([C@H](C)CNc3cc(-c4ccc(N5CCOC(C)C5)nc4)ncn3)cccc12` (single isomer, unassigned) [Compound 713] gave a negative logarithm of the Ki (pKi) greater than 7.52. With `CNC(=O)c1ccnc2c([C@H](C)CNc3cc(-c4ccc(N5CCN6C(=O)OCC6C5)nc4)ncn3)cccc12` (single isomer, unassigned) [Compound 731], the negative-log Ki (pKi) was greater than 7.52. The value for `COc1ccccc1CCNc1cc(-c2ccc3ncccc3c2)ncn1` [Compound 1] was greater than 7.52; that for `COc1ccccc1CCNc1cc(-c2cnc3[nH]ccc3c2)ncn1` [Compound 8] was greater than 7.52; that for `COc1ccccc1CCNc1cc(-c2ccc(C)nc2)ncn1` [Compound 11] was greater than 7.52. The value for `COc1ccccc1CCNc1cc(-c2ccc(N3CCN(C(C)=O)CC3)nc2)ncn1` [Compound 16] was greater than 7.52; that for `CN1CCN(c2ccc(-c3cc(NCCc4cccc5c4OCC5)ncn3)cn2)CC1` [Compound 30] was greater than 7.52; that for `COc1ccccc1[C@H](C)CNc1cc(-c2ccc(N3CCN(C)CC3)nc2)ncn1` [Compound 32, (S)—N-(2-(2-Methoxyphenyl)propyl)-6-(6-(4-methylpiperazin-1-yl)pyridin-3-yl)pyrimidin-4-amine] was greater than 7.52. `COc1ccccc1CCNc1cc(-c2cnc3c(ccn3C)c2)ncn1` [Compound 34] showed a negative logarithm of the Ki (pKi) greater than 7.52. The value for `CCn1ccc2cc(-c3cc(NCCc4ccccc4OC)ncn3)cnc21` [Compound 35] was greater than 7.52; that for `CCCn1ccc2cc(-c3cc(NCCc4ccccc4OC)ncn3)cnc21` [Compound 36] was greater than 7.52; that for `COc1ccccc1CCNc1cc(-c2cnc3c(ccn3C(C)C)c2)ncn1` [Compound 37] was greater than 7.52. For `COCCn1ccc2cc(-c3cc(NCCc4ccccc4OC)ncn3)cnc21` [Compound 38] the value was greater than 7.52; for `COc1ccccc1CCNc1cc(-c2cnc3c(ccn3CC3CC3)c2)ncn1` [Compound 40], greater than 7.52. Consider `COc1ccccc1CCNc1cc(-c2cnc3c(ccn3CC3CCOCC3)c2)ncn1` [Compound 41], for which the pKi is greater than 7.52. The value for `COc1ccccc1CCNc1cc(-c2cnc3c(cnn3C)c2)ncn1` [Compound 42] was greater than 7.52; that for `COc1ccccc1CCNc1cc(-c2cnc3c(cnn3C(C)C)c2)ncn1` [Compound 44] was greater than 7.52. For `COc1ccccc1CCNc1cc(-c2cnc3c(cnn3CCC(C)C)c2)ncn1` [Compound 45] the value was greater than 7.52. `COc1ccccc1CCNc1cc(-c2ccc(N3CCCC3)nc2)ncn1` [Compound 46] showed a pKi greater than 7.52. For the molecule `COc1ccccc1[C@H](C)CNc1cc(-c2ccc(C)nc2)ncn1` [Compound 55], the pKi was greater than 7.52.

Turning to `CCOc1ccccc1CCNc1cc(-c2ccc(C)nc2)ncn1` [Compound 57], the pKi is greater than 7.52.

`Cc1ccc(-c2cc(NCCc3cccc4c3OCC4)ncn2)cn1` [Compound 60] gave a pKi greater than 7.52. Regarding `CC(CNc1cc(-c2ccc(N3CCN(C)CC3)nc2)ncn1)c1ccccc1OC(F)F` (centres unmarked) [Compound 63], the pKi was greater than 7.52. The molecule `COc1cc(SC)ccc1C(C)CNc1cc(-c2ccc(N3CCN(C(C)=O)CC3)nc2)ncn1` (centres unmarked) [Compound 73] had a pKi greater than 7.52. The value for `COc1ccccc1CCNc1cc(-c2ccc3c(cnn3C)c2)ncn1` [Compound 79] was greater than 7.52; that for `COc1ccccc1[C@H](C)CNc1cc(-c2ccc3ncccc3c2)ncn1` [Compound 80] was greater than 7.52; that for `COc1ccccc1CCNc1cc(-c2cnc3c(cnn3C3CCN(C)CC3)c2)ncn1` [Compound 82] was greater than 7.52. For `COc1ccccc1[C@H](C)CNc1cc(-c2cnc3c(cnn3C3CCN(C)CC3)c2)ncn1` [Compound 83] the value was greater than 7.52.

In the case of `COc1ccccc1[C@H](C)CNc1cc(-c2ccc(N3CCCC3)nc2)ncn1` [Compound 84], the pKi was greater than 7.52.

`Cc1ccc(-c2cc(NCC(C)c3cccc4c3OC(C)(C)C4)ncn2)cn1` (centres unmarked) [Compound 85] showed a pKi greater than 7.52.

`Cc1ccc(-c2cc(NCCc3ccccc3OC3CC3)ncn2)cn1` [Compound 86] had a pKi greater than 7.52. For `CN1CCN(c2ccc(-c3cc(NCCc4ccccc4OC4CC4)ncn3)cn2)CC1` [Compound 87] the value was greater than 7.52. The value for `CCOc1ccccc1C(C)CNc1cc(-c2ccc(C)nc2)ncn1` (centres unmarked) [Compound 91] was greater than 7.52; that for `CCOc1ccccc1C(C)CNc1cc(-c2ccc(N3CCN(C)CC3)nc2)ncn1` (centres unmarked) [Compound 92] was greater than 7.52; that for `CCOc1ccccc1CCNc1cc(-c2ccc(N3CCN(CCO)CC3)nc2)ncn1` [Compound 94] was greater than 7.52. For `COc1ccccc1[C@H](C)CNc1cc(-c2ccc(F)nc2)ncn1` [Compound 96] the value was greater than 7.52; for `COc1ccccc1CCNc1cc(-c2cnc3c(cnn3CS(C)(=O)=O)c2)ncn1` [Compound 97], greater than 7.52. Molecule `CCOc1ccccc1CCNc1cc(-c2ccc(N3CC[C@H](O)C3)nc2)ncn1` [Compound 98] gave a negative logarithm of the Ki (pKi) greater than 7.52. Molecule `CCOc1ccccc1CCNc1cc(-c2ccc(N3CC[C@@H](O)C3)nc2)ncn1` [Compound 99] showed a negative logarithm of the Ki (pKi) greater than 7.52.

In turn, `CCOc1cc(F)ccc1C(C)CNc1cc(-c2ccc(C)nc2)ncn1` (centres unmarked) [Compound 100] gave a negative-log Ki (pKi) greater than 7.52. The value for `Cc1ccc(-c2cc(NCC(C)c3ccccc3OC3COC3)ncn2)cn1` (centres unmarked) [Compound 101] was greater than 7.52; that for `CC(CNc1cc(-c2ccc(N3CCN(C)CC3)nc2)ncn1)c1ccccc1OC1COC1` (centres unmarked) [Compound 102] was greater than 7.52. Consider `CCOc1cc(F)ccc1[C@H](C)CNc1cc(-c2ccc(C)nc2)ncn1` [Compound 103], for which the negative logarithm of the Ki (pKi) was greater than 7.52. For `COc1ccccc1[C@H](C)CNc1cc(-c2ccnc(-c3ccnc(F)c3)c2)ncn1` [Compound 105] the value was greater than 7.52. As for `Cc1ccc(-c2cc(NC[C@@H](C)c3ccccc3OC3CC3)ncn2)cn1` [Compound 107], the pKi was greater than 7.52.

With `Cc1ccc(-c2cc(NC[C@@H](C)c3ccccc3O)ncn2)cn1` [Compound 109], the pKi was greater than 7.52. `CCOc1ccccc1[C@H](C)CNc1cc(-c2ccc(C)nc2)ncn1` [Compound 110] showed a pKi greater than 7.52. For `C[C@H](CNc1cc(-c2ccc(N3CCN(C)CC3)nc2)ncn1)c1ccccc1OC1CC1` [Compound 114], the pKi was greater than 7.52. In turn, `COc1cc(CO)ccc1C(C)CNc1cc(-c2ccc(N3CCN(C(C)=O)CC3)nc2)ncn1` (centres unmarked) [Compound 115] had a pKi greater than 7.52. For `COC(=O)c1ccc(C(C)CNc2cc(-c3ccc(N4CCN(C(C)=O)CC4)nc3)ncn2)c(OC)c1` (centres unmarked) [Compound 116] the value was greater than 7.52.

`COc1cc(F)c(F)cc1C(C)CNc1cc(-c2ccc(C)nc2)ncn1` (centres unmarked) [Compound 117] gave a pKi greater than 7.52.

As for `COc1ccccc1[C@H](C)CNc1cc(-c2ccc(NCCO)nc2)ncn1` [Compound 118], the pKi was greater than 7.52.

Consider `COc1ccccc1[C@H](C)CNc1cc(-c2ccnc(NCCO)c2)ncn1` [Compound 119], for which the pKi was greater than 7.52. On to `CCOc1cc(F)ccc1[C@H](C)CNc1cc(-c2ccc(N3CCN(C)CC3)nc2)ncn1` [Compound 120], for which the pKi was greater than 7.52. For `COc1cc(C(N)=O)ccc1C(C)CNc1cc(-c2ccc(C)nc2)ncn1` (centres unmarked) [Compound 122] the value was greater than 7.52.
